Measurements as given in US20260109712A1, “RIFAMYCINS FOR NONTUBERCULOUS MYCOBACTERIA” (priority 2022, published 2026).
In brackets after ≈: the same amount, converted by molar mass. Where two headings read alike, the source gives them in different places.

Legend:
[1] = tested on: M. abscessus ATCC 19977; assay: MIC assay in 96-well plate format, wild-type strain; format: cell-based, Mycobacterium abscessus
In short: (§1)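 Two-fold, ten-point dilutions in 7H9 with 2% DMSO; mid-log culture diluted to OD600=0.1 (1×10^7 CFU/mL). Incubated 3 days at 37 °C, shaking 110 RPM; growth = Day 3 minus Day 0 OD600, expressed as percentage of drug-free growth and plotted against concentration. Two biological replicates.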

[2] = tested on: Δarr M. abscessus; assay: MIC assay, isogenic arr-deleted strain; format: cell-based, Mycobacterium abscessus; conditions: arr-deleted strain; 90% growth inhibition
In short: as §1

[3] = tested on: M. abscessus Bamboo; assay: MIC assay, clinical isolate Bamboo; format: cell-based, Mycobacterium abscessus
[4] = tested on: M. abscessus Bamboo; assay: Broth MBC90 (bMBC90); format: cell-based, Mycobacterium abscessus
Excerpt: Broth MIC, broth MBC90 (bMBC90), and caseum surrogate MBC90 ([…]) of clinically used antibiotics and of novel ADP-ribosylation-resistant rifabutin analogs against M. abscessus Bamboo have been evaluated.

[5] = tested on: M. abscessus Bamboo; assay: Caseum surrogate MBC90 (cMBC90) kill assay; format: cell-based, Mycobacterium abscessus; conditions: for MBC: read-out: cMBC90
Excerpt: (§2) The surrogate matrix was generated as described previously from cultured THP-1 cells (ATCC TIB-202) (mBio, 2023, 14, e0059823). M. abscessus exponential cultures grown in Middlebrook 7H9 broth (Sigma Aldrich) (OD600 0.6-0.9) were spun down and resuspended in water to an OD600 of 7, 0.7, and 0.07. As described for the M. tuberculosis caseum surrogate assay (mnBio, 2023, 14, e0059823), the bacterial suspensions (at three different dilutions resulting in ˜10^9, 10^8, and 10^7 starting CFU/mL, represented by circle, square, and triangle indicators respectively) were added to the caseum surrogate in the ratio 2:1 (vol/wt), briefly homogenized with 1.4-mm zirconia beads, divided evenly into nine 1.5-mL microcentrifuge tubes, and incubated as standing cultures at 37° C. At the indicated time points, tubes were removed and used for CFU enumeration by plating on Middlebrook 7H11 agar (Sigma Aldrich). Separate tubes were used at each time point. To determine the kill curves, cultures with a starting CFU/mL of 10^8 were used (resulting in the middle curve with square indicators). Arrows indicate the time points when drugs were added and the end of the treatment. The experiment was repeated three times independently, yielding similar results. A representative example is shown. Dots and error bars represent means and standard deviations of three technical replicates, respectively.
FIGS. 29A-29M show the Dose-response kill curves against M. abscessus Bamboo in caseum surrogate. M. abscessus cultures were set up as described in the legend of FIG. 28. Bacterial cell suspensions were added to yield a starting CFU of 10^8/mL (FIG. 28, middle growth curve with square indicators). […] The shaded areas indicate drug concentration windows achieved in caseum in vivo. (Antimicrob. Agents Chemother., 2021, 65, e0050621; Antimicrob. Agents Chemother., 2022, 66, e0221221; PLoS Med., 2019, 16, e1002773; ACS Infect. Dis., 2016, 2, 251-267). The experiment was repeated twice independently, yielding similar results. A representative example is shown. Dots and error bars represent means and standard deviations of three technical replicates, respectively. Horizontal dotted lines indicate the cutoff for 1 log reduction in CFU compared to 10-day drug-free control culture. The cMBC90 values shown in Table 16 are the drug concentrations that reduce CFU by 90% relative to the CFU of drug-free controls at day 10. Since the cultures were in the stationary phase on day 5 when drug treatment started, the CFUs of the drug-free cultures at day 10 were similar to the CFUs of the drug-free cultures at day 5 (FIG. 28).
as §2, with “(doi: 10.1128/mbio.00598-23).” for “(mBio, 2023, 14, e0059823).”, “(doi: 10.1128/mbio.00598-23),” for “(mnBio, 2023, 14, e0059823),”, “CFU/mL)” for “CFU/mL, represented by circle, square, and triangle indicators respectively)”, “curves for the drugs,” for “curves,”, “used.” for “used (resulting in the middle curve with square indicators). Arrows indicate the time points when drugs were added and the end of the treatment.”, “results.” for “results. A representative example is shown. Dots and error bars represent means and standard deviations of three technical replicates, respectively.”
The experiment was repeated twice independently, yielding similar results. A representative example is shown. The cMBC90 values shown in Table 16 are the drug concentrations that reduce CFU by 90% relative to the CFU of drug-free controls at day 10. […]

[6] = tested on: M. abscessus subsp. bolletii CCUG 50184T; assay: MIC, anti-mycobacterial profiling; format: cell-based, Mycobacterium abscessus; conditions: mean of two experiments
Experimental: (§3) MIC determination was carried out in 96-well plate format as previously described.^[13-14] 96-well plates were initially set up with 100 μL of 7H9 per well. For each compound, a ten-point two-fold dilution series starting at twice the desired highest concentration was dispensed onto the 96-well plates using a Tecan D300e Digital Dispenser, with the DMSO concentration normalized to 2%. M. abscessus culture grown to mid-log phase (OD600=0.4-0.6) was diluted to OD600=0.1 (1×10^7 CFU/mL). 100 μL of the resulting bacteria suspension was dispensed onto the 96-well plates containing compounds to give a final volume of 200 μL per well with an initial OD600=0.05 (5×10^6 CFU/mL) and final DMSO concentration of 1%. Final compound concentration ranges were typically 50-0.098 μM, 6.25-0.012 μM, 0.006-3.13 μM, or 0.003-1.56 μM. Untreated control wells are included on each plate that contain bacteria suspension and 1% DMSO. Plates were sealed with parafilm, stored in boxes with wet paper towels and incubated at 37° C. with shaking (110 RPM). Plates were incubated for 3 days. To determine growth, OD600 was measured using a Tecan Infinite M200 plate reader on Day 0 and Day 3. Two biological replicates were performed. Clarithromycin was included in each experiment as a positive control.
(§4) For each well on the 96-well plate, bacterial growth was calculated by subtracting the Day 0 OD600 value from the Day 3 OD600 value. For each compound series, the bacterial growth values for the untreated control wells were averaged to give the average drug-free bacterial growth. For compound-containing wells, percentage growth was calculated by dividing their growth values by the average drug-free bacterial growth for the compound series and multiplying by 100. For each compound series, we plotted percentage growth versus compound concentration. By visual inspection of the dose-response curve, we determined the MIC of a compound as the compound concentrations that would result in 90% growth inhibition.
(§5) The MIC data was determined using methods disclosed in Example 1.

[7] = tested on: M. abscessus subsp. massiliense CCUG 48898T; assay: MIC, anti-mycobacterial profiling; format: cell-based, Mycobacterium abscessus; conditions: mean of two experiments
Experimental: as §3, §4, §5

[8] = tested on: M. chelonae ATCC 35752; assay: MIC, anti-mycobacterial profiling; format: cell-based, Mycobacterium chelonae; conditions: mean of two experiments
[9] = tested on: M. fortuitum ATCC 6841; assay: MIC, anti-mycobacterial profiling; format: cell-based, Mycobacterium fortuitum; conditions: mean of two experiments
[10] = tested on: M. avium subsp. hominisuis MAC109; assay: MIC, anti-mycobacterial profiling; format: cell-based, Mycobacterium avium; conditions: mean of two experiments
[11] = tested on: M. intracellulare ATCC 13950; assay: MIC, anti-mycobacterial profiling; format: cell-based, Mycobacterium intracellulare; conditions: mean of two experiments
[12] = tested on: M. chimaera CCUG 50989T; assay: MIC, anti-mycobacterial profiling; format: cell-based, Mycobacterium chimaera; conditions: mean of two experiments
[13] = tested on: M. kansasii ATCC 12478; assay: MIC, anti-mycobacterial profiling; format: cell-based, Mycobacterium kansasii; conditions: mean of two experiments
[14] = tested on: M. szulgai ATCC 35799; assay: MIC, anti-mycobacterial profiling; format: cell-based, Mycobacterium szulgai; conditions: mean of two experiments
[15] = tested on: M. xenopi ATCC 19250; assay: MIC, anti-mycobacterial profiling; format: cell-based, Mycobacterium xenopi; conditions: mean of two experiments
[16] = tested on: M. simiae ATCC 25275; assay: MIC, anti-mycobacterial profiling; format: cell-based, Mycobacterium simiae; conditions: mean of two experiments
[17] = tested on: RFB-R1 M. abscessus; assay: microbe, parasite or virus in culture; format: cell-based, Mycobacterium abscessus; conditions: Mycobacteroides abscessus, read-out: RFB-R1 M. abscessus MIC
[18] = tested on: Mycobacterium abscessus; assay: MIC against Mycobacterium abscessus (strain not given); format: cell-based; conditions: Mycobacteroides abscessus, 72 h; Table 22; read-out: MICMab
[19] = Mycobacteroides abscessus, broth, M. abscessus Bamboo, Table 16, read-out: MIC
[20] = Mycobacteroides abscessus, 120 h, broth, 5 days
[21] = Mycobacteroides abscessus, 120 h

| SMILES | cMBC90/bMBC90 ([5]; 5-day assays) | MIC [3, 19] [µM] | MBC [4, 20] [µM] | MBC [5, 21] [µM] | further results |
| --- | --- | --- | --- | --- | --- |
| CO[C@H]1/C=C/O[C@@]2(C)Oc3c(C)c(O)c4c(c3C2=O)C2=NC3(CCN(CC(C)C)CC3)NC2=C(NC(=O)/C(C)=C/C=C/[C@H](C)[C@H](O)[C@@H](C)[C@@H](O)[C@@H](C)[C@H](OC(=O)c2cncnc2)[C@@H]1C)C4=O [5n, 25-O-(5-pyrimidinecarbonyl)-25-O-desacetyrifabutin] | 5 | – | – | – | MIC ([1]; M. abscessus ATCC 19977, 90% growth inhibition, read-out: WT Mab MIC): 0.018 µM (≈ 0.0164 µg/mL); MIC ratio ([1]; WT MIC/Δarr strain MIC): 0.72; Δarr Mab MIC [2]: 0.025 µM; MIC ([3]; broth, M. abscessus Bamboo, Table 16, read-out: MIC): 0.03 µM (≈ 0.0273 µg/mL); MBC ([4]; broth, 5 days): 0.13 µM (≈ 0.118 µg/mL); MBC ([5]; caseum surrogate, 5 days, 90% CFU reduction vs drug-free control): 0.65 µM (≈ 0.592 µg/mL) |
| NCC[C@H](O)C(=O)N[C@@H]1C[C@H](N)[C@@H](O[C@H]2O[C@H](CN)[C@@H](O)[C@H](O)[C@H]2O)[C@H](O)[C@H]1O[C@H]1O[C@H](CO)[C@@H](O)[C@H](N)[C@H]1O [Amikacin] | 0.3 | 25 (≈ 14.6 µg/mL) | 40 (≈ 23.4 µg/mL) | 12 (≈ 7.03 µg/mL) | – |
| COc1nc2ccc(Br)cc2cc1[C@@H](c1ccccc1)[C@@](O)(CCN(C)C)c1cccc2ccccc12 [Bedaquiline, bedaquiline] | – | 0.4 (≈ 0.222 µg/mL) | – | – | MBC ([4]; Mycobacteroides abscessus, 240 h, assay extended to 10 days): 2 µM (≈ 1.11 µg/mL); cMBC90/bMBC90 ([5]; 10-day assays): 33.5; MBC ([5]; Mycobacteroides abscessus, 240 h, caseum surrogate, assay extended to 10 days): 67 µM (≈ 37.2 µg/mL) |
| CO[C@@]1(NC(=O)Cc2cccs2)C(=O)N2C(C(=O)O)=C(COC(N)=O)CS[C@@H]21 [Cefoxitin, cefoxitin] | 0.78 | 29 (≈ 12.4 µg/mL) | 45 (≈ 19.2 µg/mL) | 35 (≈ 15 µg/mL) | – |
| CC(C)/N=c1\cc2n(-c3ccc(Cl)cc3)c3ccccc3nc-2cc1Nc1ccc(Cl)cc1 [Clofazimine, clofazimine] | – | 12.5 (≈ 5.92 µg/mL) | > 128 | > 128 | – |
| C[C@@H](O)[C@H]1C(=O)N2C(C(=O)O)=C(SCCN=CN)C[C@H]12 [Imipenem, imipenem] | 2.3 | 10 (≈ 2.99 µg/mL) | 18 (≈ 5.39 µg/mL) | 42 (≈ 12.6 µg/mL) | – |
| CC(=O)NC[C@H]1CN(c2ccc(N3CCOCC3)c(F)c2)C(=O)O1 [Linezolid, linezolid] | 16 | 25 (≈ 8.43 µg/mL) | 32 (≈ 10.8 µg/mL) | 512 (≈ 173 µg/mL) | – |
| COc1c(N2C[C@@H]3CCCN[C@@H]3C2)c(F)cc2c(=O)c(C(=O)O)cn(C3CC3)c12 [Moxifloxacin, moxifloxacin] | 4 | 6 (≈ 2.41 µg/mL) | 2 (≈ 0.803 µg/mL) | 8 (≈ 3.21 µg/mL) | – |
| CO[C@H]1/C=C/O[C@@]2(C)Oc3c(C)c(O)c4c(O)c(c(/C=N/N5CCN(C)CC5)c(O)c4c3C2=O)NC(=O)/C(C)=C\C=C\[C@H](C)[C@H](O)[C@@H](C)[C@@H](O)[C@@H](C)[C@H](OC(C)=O)[C@@H]1C [RIF] | – | – | – | – | MIC ([1]; M. abscessus subsp. abscessus ATCC 19977, mean of two experiments, read-out: MIC): 9.5 µM (≈ 7.82 µg/mL); MIC [6]: 28 µM (≈ 23 µg/mL); MIC [7]: 13 µM (≈ 10.7 µg/mL); MIC [8]: 1.4 µM (≈ 1.15 µg/mL); MIC [9]: 6.7 µM (≈ 5.51 µg/mL); MIC [10]: 0.04 µM (≈ 0.0329 µg/mL); MIC [11]: 0.06 µM (≈ 0.0494 µg/mL); MIC [12]: 0.07 µM (≈ 0.0576 µg/mL); MIC [13]: 0.3 µM (≈ 0.247 µg/mL); MIC [14]: 0.06 µM (≈ 0.0494 µg/mL); MIC [15]: 0.04 µM (≈ 0.0329 µg/mL); MIC [16]: >100 µM |
| CN(C)c1cc(NC(=O)CNC(C)(C)C)c(O)c2c1C[C@H]1C[C@H]3[C@H](N(C)C)C(O)=C(C(N)=O)C(=O)[C@@]3(O)C(O)=C1C2=O [Tigecycline, tigecycline] | 1 | – | 8 (≈ 4.69 µg/mL) | 8 (≈ 4.69 µg/mL) | MIC ([3]; Mycobacteroides abscessus): 12.5 µM (≈ 7.32 µg/mL) |
| CO[C@H]1/C=C/O[C@@]2(C)Oc3c(C)c(O)c4c(O)c(c(/C=N/N5CCN(C)CC5)c(O)c4c3C2=O)NC(=O)/C(C)=C\C=C\[C@H](C)[C@H](O)[C@@H](C)[C@@H](O)[C@@H](C)[C@H](OC(C)=O)[C@@H]1C [rifampicin, reference compound] | – | – | – | – | MIC ([1]; Mycobacteroides abscessus, ATCC19977, read-out: WT Mab MIC): 5.3 µM (≈ 4.36 µg/mL); Δarr Mab MIC [2]: 0.26 µM; MIC [17]: > 100 µM; MIC [18]: 5.3 µM (≈ 4.36 µg/mL) |
